Earlier results in patent publication US7148022B2, “Assay for anti-viral agent” (The University Court of the University of St. Andrews, priority 2000, dated 2006).

Test system: picornavirus
Conditions: background statement, refs 9 and 10

C[C@H]1CCC/C=C/[C@@H]2C[C@H](O)C[C@H]2[C@H](O)/C=C/C(=O)O1 [Brefeldin-A]
inhibition of picornavirus replication: one of the most potent known inhibitors
